Source: patent publication US6440710B1, “Antibody-catalyzed deuteration, tritiation, dedeuteration or detritiation of carbonyl compounds” (The Scripps Research Institute, priority 1998, dated 2002)

System: antibody 38C2
Test: antibody 38C2-catalyzed deuterium exchange (deuteration) of ketones and aldehydes in D2O, kinetics by GCMS or 1H-NMR
Assay type: biochemical
Settings: for kcat / Km: 38C2-catalyzed deuteration, D2O, pD 7.4, 25° C.; for kcat: per exchange of one hydrogen atom; for Km: Lineweaver-Burk analysis (GCMS); for kcat/kun: rate enhancement over uncatalyzed background reaction (followed 5 months at 25° C.)
Experimental: Series of reactions were carried out in a 0.1 ml solution containing the appropriate concentration of the carbonyl substrate and antibody 38C2(1.33 μM in the case of cycloheptanone and heptanal, 2.67 μM in the case of 2-heptanone) which was previously dialyzed three times against 0.1 M NaCl in D2O. The reaction mixtures were kept at 25° C. for 10 minutes and then quenched with dichloromethane. The organic layer was separated and analyzed by GCMS (Chemical Ionization) where the different isotopic masses were monitored and integrated. All kinetic parameters are calculated per exchange of one deuterium atom. No background reactions could be detected under these conditions.
The issue of kinetic analyses of these catalytic reactions and structure determination of the deuterium labeled products is not trivial. The common chromatographic methods, such as HPLC, used to monitor protein-catalyzed organic reactions that are carried out at very low concentrations, are not applicable to isotope exchange reactions. Work at low concentrations, at the range of the antibody's Km, is required in order to establish the kinetic parameters of the antibody catalyzed reaction. Consequently, alternative methods such as mass spectrometry and NMR are required. For NMR spectroscopy, deuterated substrates were used and the exchange of ^2H and ^1H was followed by ^1H-NMR. This allows for monitoring the reaction in real time in the presence of antibody and buffer solution. The experiments were carried out in relatively high substrate concentrations, due to the limited sensitivity of the instrument. Most experiments employed deuterated acetonitrile as an internal standard that enables one to quantify the results. It will be appreciated that the employment of NMR techniques is valuable not only for kinetic studies but also for determining the product's stereochemistry as well as the regio, chemo- and enantioselectivity of the reaction.
All reactions were carried out in D2O under neutral conditions (pD 7.4) in the presence of catalytic amounts of the commercially available 38C2 antibody.
The exchange reaction was followed either by mass spectrometry (GCMS.) or by ^1H-NMR. The high sensitivity of the GCMS method with respect to substrate concentration allowed for determination of the kinetic parameters of these reactions (Km and kcat) using Lineweaver-Burk analysis. These measurements are presented in Table 1 hereinunder and FIG. 5.
Although all NMR measurements were carried out under substrate saturation conditions (allowing only for determination of Vmax and kcat, Table 1, above), as further detailed hereinunder, this method provided useful information about the regioselectivity of the reaction in the cases of non-symmetrical ketones and chemoselectivity with polyfunctional carbonyl compounds.
14. The rate of the uncatalyzed reaction was determined by averaging the results of five experiments for each substrate. All reaction mixtures, containing the appropriate substrate (200 μM) and NaCl (0.1 M) in D2O (0.1 mL), were monitored by GCMS-CI. Approximately 1-2% yield was observed after 5 months at 25° C.

Km [mM]	SMILES	kcat [s⁻¹]	also measured
–	CC(C)=O [Acetone, 1, Acetone]	0.0433	–
3.5	CCCCCCC=O [Heptanal, 5, Heptanal]	0.753	–
–	O=C1CCCC1 [Cyclopentanone, 8, Cyclopentanone]	0.102	–
–	CC(=O)CC(C)=O [acetylacetone, reference compound]	–	inhibition of the 38C2-catalyzed deuterium exchange reaction (all cases studied by GCMS): effectively inhibited
–	CCCCC=O [Valeraldehyde, 4, Valeraldehyde]	0.0567	–
–	CCC(C)=O [Butanone, 2, Butanone]	0.0517	–
16	CCCCCC(C)=O [2-Heptanone, 3, 2-Heptanone]	0.0583	kcat/kun: 6.94 × 10^7
–	CC(=O)C(C)(C)C [3,3-dimethylbutan-2-one]	–	reactivity in the 38C2-catalyzed deuterium exchange reaction (data not shown): absolute inertness
0.68	CCCCCCCCCC=O [Decanal, 6, Decanal]	0.0667	–
–	CCOC(=O)CCCC(C)=O [Ethyl 5-oxohexanoate, 7, Ethyl 5-oxohexanoate]	0.013	–
4.6	O=C1CCCCCC1 [Cycloheptanone, 10, Cycloheptanone]	0.232	kcat/kun: 1.1 × 10^8

SMILES	Km [mM]	kcat [s⁻¹]	also measured
O=C1CCCCC1 [Cyclohexanone, 9, Cyclohexanone]	5.2	3.233	kcat/kun: 5.9 × 10^8
